Measurements reported in patent US9403801B2 (Calitor Sciences, LLC, priority 2014, dated 2016).

Columns and labels:
[1] = Pharmacokinetics after intravenous and oral administration in rats; format: in vivo; details: for Clearance (CL) after iv dosing / AUC(0-t) / half-life / Vd: dose 1 mg/kg (Ex. 27: 0.72 mg/kg), iv dosing; for F: oral bioavailability; for AUC(0-t) / half-life / Vd: rat, plasma; for Vd: read-out: Vss
How it was run: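 Rats were dosed 1 or 2 mg/kg IV or 5 or 10 mg/kg orally, as water solution, HPMC/Tween 80, DMSO/saline, MC suspension or capsule. Plasma was sampled from 0.083 or 0.25 h up to 24 h and quantified by LC/MS/MS in MRM mode with ESI.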

[2] = Compound stability in rat liver microsomes; format: in vitro ADME
How it was run: (§1)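 Compounds (5 μM, 0.05% DMSO) were incubated at 37° C with liver microsomes (0.5 mg protein/mL) and NADPH (1.0 mM) in 100 mM potassium phosphate, pH 7.4. Samples taken at 0–60 min were quenched with cold acetonitrile and analysed by LC/MS/MS. Remaining compound was expressed as % of the zero-time value, and CLint was extrapolated.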

[3] = Compound stability in human liver microsomes; format: in vitro ADME; details: for half-life at 5 μM / T1/2: compound 5 μM, NADPH 1.0 mM, 37° C.
How it was run: as §1

JAK2 (h) = JAK2 (h) (Homo sapiens (Human), UniProt O60674); assay: JAK2 kinase assay (33P-ATP filter binding, Millipore); format: biochemical
Protocol: Kinase assays can be performed by measurement of incorporation of γ-^33P ATP into immobilized myelin basic protein (MBP). High binding white 384 well plates (Greiner) are coated with MBP (Sigma #M−1891) by incubation of 60 μL/well of 20 μg/mL MBP in Tris-buffered saline (TBS; 50 mM Tris pH 8.0, 138 mM NaCl, 2.7 mM KCl) for 24 h at 4° C. Plates are washed 3× with 100 μL TBS. Kinase reactions are carried out in a total volume of 34 μL in kinase buffer (5 mM Hepes pH 7.6, 15 mM NaCl, 0.01% bovine gamma globulin (Sigma #I-5506), 10 mM MgCl2, 1 mM DTT, 0.02% TritonX-100). Compound dilutions are performed in DMSO and added to assay wells to a final DMSO concentration of 1%. Each data point is measured in duplicate, and at least two duplicate assays are performed for each individual compound determination. Enzyme is added to final concentrations of 10 nM or 20 nM, for example. A mixture of unlabeled ATP and γ-^33P ATP is added to start the reaction (2×10^6 cpm of γ-^33P ATP per well (3000 Ci/mmole) and 10 μM unlabeled ATP, typically. The reactions are carried out for 1 h at room temperature with shaking. Plates are washed 7× with TBS, followed by the addition of 50 μL/well scintillation fluid (Wallac). Plates are read using a Wallac Trilux counter. This is only one format of such assays; various other formats are possible, as known to one skilled in the art.
The above assay procedure can be used to determine the IC50 for inhibition and/or the inhibition constant, Ki. The IC50 is defined as the concentration of compound required to reduce the enzyme activity by 50% under the condition of the assay. The IC50 value is estimated by preparing a 10 point curve using a 1/2 log dilution series (for example, a typical curve may be prepared using the following compound concentrations: 3 μM, 1 μM, 0.3 μM, 0.1 μM, 0.03 μM, 0.01 μM, 0.003 μM, 0.001 μM, 0.0003 μM and 0 μM).
The kinase assays described herein were performed at Millipore UK Ltd, Dundee Technology Park, Dundee DD2 1SW, UK.

JAK1 (h) = JAK1 (h) (Homo sapiens (Human), UniProt P23458); assay: JAK1 kinase assay (33P-ATP filter binding, Millipore); format: biochemical
How it was run: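 Radiometric assay of γ-33P-ATP incorporation into plate-immobilised MBP; kinase buffer pH 7.6 with 10 mM MgCl2, 10 μM unlabelled ATP typical, enzyme 10 or 20 nM final, 1% DMSO. Reactions ran 1 h at room temperature before scintillation counting. IC50 from 10-point half-log dilution curve, duplicates.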

[4] = pH 7.4, Rat liver microsomes 0.5 mg protein/mL, compound 5 μM, NADPH 1.0 mM, 37° C.
[5] = pH 7.4, Rat liver microsomes, in vivo CLint extrapolated
[6] = pH 7.4, Human liver microsomes 0.5 mg protein/mL
[7] = pH 7.4, Human liver microsomes, in vivo CLint extrapolated
[8] = rat, liver microsomes, pH 7.4, Rat liver microsomes 0.5 mg protein/mL, compound 5 μM, NADPH 1.0 mM, 37° C.
[9] = rat, liver microsomes, pH 7.4, Rat liver microsomes, in vivo CLint extrapolated
[10] = human, liver microsomes, pH 7.4, Human liver microsomes 0.5 mg protein/mL
[11] = human, liver microsomes, pH 7.4, Human liver microsomes, in vivo CLint extrapolated
[12] = Human liver microsomes 0.5 mg protein/mL

Chain of JAK2 (h) (O60674 whole entry): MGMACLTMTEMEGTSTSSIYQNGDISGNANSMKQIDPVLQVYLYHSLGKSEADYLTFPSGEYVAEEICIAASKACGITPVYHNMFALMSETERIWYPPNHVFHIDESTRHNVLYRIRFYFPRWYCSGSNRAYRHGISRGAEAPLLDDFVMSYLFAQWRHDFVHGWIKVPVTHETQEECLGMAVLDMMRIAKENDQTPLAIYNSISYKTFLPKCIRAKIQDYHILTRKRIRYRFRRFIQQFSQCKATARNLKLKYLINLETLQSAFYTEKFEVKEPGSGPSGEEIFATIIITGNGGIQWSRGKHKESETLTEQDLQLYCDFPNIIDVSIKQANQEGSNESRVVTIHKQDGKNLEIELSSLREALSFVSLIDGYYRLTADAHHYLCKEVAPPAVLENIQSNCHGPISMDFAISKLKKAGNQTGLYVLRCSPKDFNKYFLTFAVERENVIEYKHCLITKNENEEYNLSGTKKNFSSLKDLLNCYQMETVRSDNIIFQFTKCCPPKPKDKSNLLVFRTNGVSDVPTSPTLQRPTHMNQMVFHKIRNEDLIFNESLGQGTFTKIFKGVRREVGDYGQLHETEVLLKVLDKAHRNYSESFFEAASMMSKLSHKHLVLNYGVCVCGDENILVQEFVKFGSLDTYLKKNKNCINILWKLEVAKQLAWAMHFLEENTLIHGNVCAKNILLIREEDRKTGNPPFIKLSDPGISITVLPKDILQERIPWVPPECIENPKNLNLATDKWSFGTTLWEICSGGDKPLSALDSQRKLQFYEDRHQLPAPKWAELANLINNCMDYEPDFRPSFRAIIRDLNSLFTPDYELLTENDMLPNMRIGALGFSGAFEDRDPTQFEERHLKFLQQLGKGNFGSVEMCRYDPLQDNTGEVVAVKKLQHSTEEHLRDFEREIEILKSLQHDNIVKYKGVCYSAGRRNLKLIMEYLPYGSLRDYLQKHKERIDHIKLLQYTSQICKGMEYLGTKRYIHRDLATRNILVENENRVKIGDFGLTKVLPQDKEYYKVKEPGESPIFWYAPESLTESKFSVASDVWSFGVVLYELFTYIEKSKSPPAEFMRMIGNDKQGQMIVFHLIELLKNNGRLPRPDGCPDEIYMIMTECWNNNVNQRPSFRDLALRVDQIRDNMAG
Chain of JAK1 (h) (P23458 whole entry): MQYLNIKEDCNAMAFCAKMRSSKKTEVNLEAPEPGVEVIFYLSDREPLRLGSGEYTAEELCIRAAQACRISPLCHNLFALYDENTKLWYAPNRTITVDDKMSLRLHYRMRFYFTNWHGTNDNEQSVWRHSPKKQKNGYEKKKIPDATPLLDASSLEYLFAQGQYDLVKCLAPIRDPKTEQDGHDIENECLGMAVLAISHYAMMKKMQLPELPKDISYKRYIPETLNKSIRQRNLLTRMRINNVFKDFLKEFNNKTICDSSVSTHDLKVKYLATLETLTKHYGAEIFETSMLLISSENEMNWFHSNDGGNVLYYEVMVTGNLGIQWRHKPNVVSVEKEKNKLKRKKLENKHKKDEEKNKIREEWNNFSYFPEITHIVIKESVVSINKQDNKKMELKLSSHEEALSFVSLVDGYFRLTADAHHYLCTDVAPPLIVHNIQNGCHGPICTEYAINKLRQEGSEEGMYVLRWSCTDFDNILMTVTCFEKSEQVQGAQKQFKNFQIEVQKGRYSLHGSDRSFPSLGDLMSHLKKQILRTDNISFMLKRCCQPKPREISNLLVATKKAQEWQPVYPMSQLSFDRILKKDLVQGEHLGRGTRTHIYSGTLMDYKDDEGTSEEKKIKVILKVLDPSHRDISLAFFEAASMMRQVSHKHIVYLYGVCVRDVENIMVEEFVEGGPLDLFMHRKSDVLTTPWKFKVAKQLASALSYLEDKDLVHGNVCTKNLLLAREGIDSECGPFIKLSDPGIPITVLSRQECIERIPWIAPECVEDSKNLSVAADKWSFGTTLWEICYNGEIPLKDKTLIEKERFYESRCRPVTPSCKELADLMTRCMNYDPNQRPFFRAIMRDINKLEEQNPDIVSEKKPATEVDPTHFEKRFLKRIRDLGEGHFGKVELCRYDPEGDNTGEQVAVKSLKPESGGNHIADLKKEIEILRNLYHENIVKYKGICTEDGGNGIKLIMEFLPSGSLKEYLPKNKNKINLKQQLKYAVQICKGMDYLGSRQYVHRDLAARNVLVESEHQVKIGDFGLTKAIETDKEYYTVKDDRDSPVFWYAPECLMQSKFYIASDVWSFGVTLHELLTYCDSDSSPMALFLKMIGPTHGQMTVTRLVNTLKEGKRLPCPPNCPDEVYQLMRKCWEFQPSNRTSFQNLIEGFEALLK

SMILES | Clearance (CL) after iv dosing [1] | F [1] | AUC(0-t) [1] | half-life [1] | Vd [1] | half-life at 5 μM [2, 4] | CLint scaled at 5 μM [2, 5] | half-life at 5 μM [3, 6] | CLint scaled at 5 μM [3, 7] | IC50 (JAK2 (h)) | IC50 (JAK1 (h)) | half-life at 5 μM [2, 8] | CLint scaled at 5 μM [2, 9] | half-life at 5 μM [3, 10] | CLint scaled at 5 μM [3, 11] | T1/2 ([2]; Rat liver microsomes 0.5 mg protein/mL, compound 5 μM, NADPH 1.0 mM, 37° C.) | CLint ([2]; Rat liver microsomes, in vivo CLint extrapolated) | T1/2 [3, 12] | CLint ([3]; Human liver microsomes, in vivo CLint extrapolated)
Cc1cc(Nc2ncc(Cl)c(NC3CC4CN(C(=O)CC#N)CC4C3)n2)nn1C (centres unmarked) [Ex. 39, 3-(5-((5-chloro-2-((1,5-dimethyl-1H-pyrazol-3-yl)amino)pyrimidin-4-yl)amino)hexahydrocyclopenta[c]pyrrol-2(1H)-yl)-3-oxopropanenitrile] | 39.8 mL/min/kg | 83.1% | 422 ng·h/mL | 41.4 min | 1.19 L/kg | 36.9 min | 67.3 mL/min/kg | 127 min | 13.7 mL/min/kg | 30 nM | 5 nM | – | – | – | – | – | – | – | –
Cn1cc(Nc2ncc(Cl)c(NC3CCC4(CC3)CCN(C(=O)C(F)(F)F)CC4)n2)cn1 [Ex. 30, 1-(9-((5-chloro-2-((1-methyl-1H-pyrazol-4-yl)amino)pyrimidin-4-yl)amino)-3-azaspiro[5.5]undecan-3-yl)-2,2,2-trifluoroethanone] | 45.7 mL/min/kg | 26.1% | 370 ng·h/mL | 69 min | 4.77 L/kg | – | – | – | – | 5 nM | 0.9 nM | 24.2 min | 103 mL/min/kg | 38 min | 45.7 mL/min/kg | – | – | – | –
Cn1cc(Nc2ncc(Cl)c(NC3CCC4(CC3)CCN(S(C)(=O)=O)CC4)n2)cn1 [Ex. 29, 5-chloro-N^2-(1-methyl-1H-pyrazol-4-yl)-N^4-(3-(methylsulfonyl)-3-azaspiro[5.5]undecan-9-yl)pyrimidine-2,4-diamine] | 45.7 mL/min/kg | 19.1% | 382 ng·h/mL | 49.2 min | 2.05 L/kg | – | – | – | – | 5 nM | 2 nM | 40.3 min | 61.6 mL/min/kg | 83.8 min | 20.8 mL/min/kg | – | – | – | –
Cc1cc(Nc2ncc(Cl)c(NC3CCC4(CC3)CCN(C(=O)CC#N)CC4)n2)nn1C [Ex. 37, 3-(9-((5-chloro-2-((1,5-dimethyl-1H-pyrazol-3-yl)amino)pyrimidin-4-yl)amino)-3-azaspiro[5.5]undecan-3-yl)-3-oxopropanenitrile] | 44.3 mL/min/kg | 31.3% | 381 ng·h/mL | 71.4 min | 2.97 L/kg | – | – | – | – | 11 nM | 5 nM | 68.9 min | 36.1 mL/min/kg | 56.2 min | 30.9 mL/min/kg | – | – | – | –
CC(=O)N1CC2CC(Nc3nc(Nc4cnn(C)c4)ncc3Cl)CC2C1 (centres unmarked) [Ex. 32, 1-(5-((5-chloro-2-((1-methyl-1H-pyrazol-4-yl)amino)pyrimidin-4-yl)amino)hexahydrocyclopenta[c]pyrrol-2(1H)-yl)ethanone] | 62.8 mL/min/kg | 41.3% | 264 ng·h/mL | 35.4 min | 1.65 L/kg | 27.2 min | 91.4 mL/min/kg | 202 min | 8.6 mL/min/kg | 37 nM | 3 nM | – | – | – | – | – | – | – | –
Cn1cc(Nc2ncc(Cl)c(NC3CCC4(CC3)CCN(c3ccc(C#N)cn3)CC4)n2)cn1 [Ex. 27, 6-(9-((5-chloro-2-((1-methyl-1H-pyrazol-4-yl)amino)pyrimidin-4-yl)amino)-3-azaspiro[5.5]undecan-3-yl)nicotinonitrile] | 27.8 mL/min/kg | 15.0% | 452 ng·h/mL | 46.2 min | 1.74 L/kg | – | – | – | – | 23 nM | 4 nM | 9.2 min | 270 mL/min/kg | 21.8 min | 79.7 mL/min/kg | – | – | – | –
Cn1cc(Nc2ncc(Cl)c(NC3CCC4(CC3)CCN(C(=O)CC#N)C4)n2)cn1 (single isomer, unassigned) [Ex. 14B, 3-(8-((5-chloro-2-((1-methyl-1H-pyrazol-4-yl)amino)pyrimidin-4-yl)amino)-2-azaspiro[4.5]decan-2-yl)-3-oxopropanenitrile] | 86.8 mL/min/kg | 12.7% | 193 ng·h/mL | 29.4 min | 2.41 L/kg | – | – | – | – | 15 nM | 2 nM | – | – | – | – | 71.63 min | 34.67 mL/min/kg | 171.8 min | 10.12 mL/min/kg
CN(c1nc(Nc2cnn(C)c2)ncc1Cl)C1CCC2(CC1)CCN(C(=O)CC#N)C2 (single isomer, unassigned) [Ex. 4A, 3-(8-((5-chloro-2-((1-methyl-1H-pyrazol-4-yl)amino)pyrimidin-4-yl)(methyl)amino)-2-azaspiro[4.5]decan-2-yl)-3-oxopropanenitrile] | 48.8 mL/min/kg | 21.81% | 345 ng·h/mL | 51.6 min | 1.38 L/kg | – | – | – | – | 83 nM | 20 nM | 12.4 min | 200 mL/min/kg | 37.3 min | 46.6 mL/min/kg | – | – | – | –
Cn1cc(Nc2ncc(Cl)c(NC3CC4CN(C(=O)C(F)(F)F)CC4C3)n2)cn1 (centres unmarked) [Ex. 34, 1-(5-((5-chloro-2-((1-methyl-1H-pyrazol-4-yl)amino)pyrimidin-4-yl)amino)hexahydrocyclopenta[c]pyrrol-2(1H)-yl)-2,2,2-trifluoroethanone] | – | – | – | – | – | 2.31 min | 1080 mL/min/kg | 19 min | 91.6 mL/min/kg | 17 nM | 2 nM | – | – | – | – | – | – | – | –
Cc1cnc(Nc2cnn(C)c2)nc1NC1CCC2(CC1)CCN(C(=O)CC#N)CC2 [Ex. 25, 3-(9-((5-methyl-2-((1-methyl-1H-pyrazol-4-yl)amino)pyrimidin-4-yl)amino)-3-azaspiro[5.5]undecan-3-yl)-3-oxopropanenitrile] | – | – | – | – | – | – | – | – | – | 86 nM | 6 nM | 16.8 min | 148 mL/min/kg | 522 min | 3.33 mL/min/kg | – | – | – | –
Cn1cc(Nc2ncc(Cl)c(NC3CC4CNCC4C3)n2)cn1 (centres unmarked) [Ex. 11, 5-chloro-N^2-(1-methyl-1H-pyrazol-4-yl)-N^4-(octahydrocyclopenta[c]pyrrol-5-yl)pyrimidine-2,4-diamine] | 105 mL/min/kg | 18.13% | 146 ng·h/mL | 151 min | 18.6 L/kg | 17.7 min | 140 mL/min/kg | – | – | 176 nM | 27 nM | – | – | – | – | – | – | ∞ | –
Cn1cnc(Nc2ncc(Cl)c(NC3CCC4(CC3)CCN(C(=O)CC#N)CC4)n2)c1 [Ex. 42, 3-(9-((5-chloro-2-((1-methyl-1H-imidazol-4-yl)amino)pyrimidin-4-yl)amino)-3-azaspiro[5.5]undecan-3-yl)-3-oxopropanenitrile] | – | – | – | – | – | – | – | – | – | 12 nM | 3 nM | 31.5 min | 78.8 mL/min/kg | 48.9 min | 35.6 mL/min/kg | – | – | – | –
